Data taken from US11446238B2, “Injectable dendrimer hydrogel nanoparticles” (Wayne State University, priority 2010, dated 2022).

System: Red blood cell (RBC)
Test: Red blood cell lysis (hemolysis)
Details: 1% Triton X-100, positive control

In the case of Triton X-100, the hemolysis is reported as 100%.
